According to patent US6455577B2, “Flavanone derivatives and composition for preventing or treating blood lipid level-related diseases comprising same” (Korea Research Institute of Bioscience and Biotechnology, priority 2000, dated 2002):

Legend:
ACAT = ACAT activity in liver microsomes of fed rats; type: in vivo, rat
Method: To determine the effect of feeding NG5006 to rats on the activities of ACAT and HMG-CoA reductase, microsomes were separated from liver tissues to be used as an enzyme source.
1 g each of the livers taken from each group of rats of Example 12 was homogenized in 5 ml of homogenization medium(0. 1 M KH2PO4, pH 7.4, 0.1 mM EDTA and 10 mM β-mercaptoethanol). The homogenate was centrifuged at 3,000×g for 10 min. at 4° C. and the supernatant thus obtained was centrifuged at 15,000×g for 15 min. at 4° C. to obtain a supernatant. The supernatant was put into an ultracentrifuge tube(Beckman) and centrifuged at 100,000×g for 1 hour at 4° C. to obtain microsomal pellets, which were then suspended in 3 ml of the homogenization medium and centrifuged at 100,000×g for 1 hour at 4° C. The pellets thus obtained were suspended in 1 ml of the homogenization medium. The protein concentration of the resulting suspension was determined by Lowry's method and then adjusted to 4 to 8 mg/ml. The resulting suspension was stored in a deep freezer(Biofreezer, Forma Scientific Inc.).
6.67 μl of 1 mg/ml cholesterol solution in acetone was mixed with 6 μl of 10% Triton WR-1339(Sigma Co.) in acetone and then, acetone was removed from the mixture by evaporation under a nitrogen flow. Distilled water was added to the resulting mixture to adjust the concentration of cholesterol to […].
Added to 10 μl of the resulting aqueous cholesterol solution were 10 μl of 1 M KH2PO4(pH 7.4), 5 μl of 0.6 mM bovine serum albumin(BSA), 10 μl of microsome solution obtained in (Step 1) and 55 μl of distilled water(total 90 μl). The mixture was pre-incubated in a water bath at 37° C. for 30 min. […]
200 μl of the resulting supernatant was put in a scintillation bottle and 4 ml of scintillation fluid(Lumac Co.) was added thereto. The mixture was assayed for radioactivity with 1450 Microbeta liquid scintillation counter(Wallac Co., Finland). ACAT activity was calculated as picomoles of cholesteryl oleate synthesized per min. per mg protein(pmoles/min/mg protein).

[1] = test system: New Zealand White rabbits; assay: Abnormal fat-containing liver cells (fatty liver) in cholesterol-fed rabbits; type: in vivo, rabbit
Method: 22 three-month-old New Zealand White rabbits(Yeonam Horticulture and Animal Husbandry College, Korea) each weighing about 2.0 to 2.3 kg were bred under a condition of temperature 20±2° C., relative humidity 55±10%, and photoperiod 12L/12D. The rabbits were divided two groups of 6 rabbits and a group of 10 rabbits, and the rats of three groups were fed with three different diets, i.e., RC4 diet(Oriental Yeast Co., Japan) containing 1% cholesterol(Control group); 1% cholesterol plus 1 mg/kg Lovastatin® (Merck, U.S.A.)(Comparative group); and 1% cholesterol plus 0.1% NG5006, respectively. RC4 diet comprises 7.6% moisture, 22.8% crude protein, 2.8% crude fat, 8.8% crude ash, 14.4% crude cellulose and 43.6% soluble nitrogen-free substances. The rabbits were bred for 8 weeks while being allowed free access to the diets and water.
In order to evaluate the effects of feeding a high cholesterol diet with NG5006 on liver tissues, the liver specimens taken from the sacrificed rabbit in Step 2 of Example 14 were treated in accordance with the procedure disclosed in Fogt F. and Nanji A., Toxicology and Applied Pharmacology, 136, 87-93, 1996; and Keegan A., et al., Journal of Hepatology, 23, 591-600, 1995, and observed under a microscope to be classified into four grades, i.e., 1+(0-25%), 2+(26-50%), 3+(51-75), 4+(76-100%) based on the proportion of abnormal fat-containing cells around the central vein in the liver acinus. The results were tested by student t-test by using Microsoft excel(version 7.0) program.

CCCCCCCCCCCCCCCCOc1cc(O)c2c(c1)OC(c1ccc(O)cc1)CC2=O (centres unmarked) [NG5006, Naringenin 7-O-cetyl Ether]
ACAT activity lower than that of the control group (ACAT; NG5006-fed rat group): 14% | ACAT activity (ACAT; liver microsomes of rats fed 1% cholesterol plus 0.02% naringenin or 0.036% NG5006, six weeks): 149.7 ± 5.1 pmole/min/mg protein | microscopic features of the livers (FIGS. 2B, 2C) ([1]; 1% cholesterol plus 1 mg/kg Lovastatin or 0.1% NG5006): almost all liver cells are of a normal shape | formation of fatty liver compared to the Control and the Lovastatin group, in words ([1]; 1% cholesterol plus 0.1% NG5006): significantly inhibits the formation of fatty liver | Proportion of abnormal fat-containing liver cells (grade) ([1]; grades 1+(0-25%), 2+(26-50%), 3+(51-75), 4+(76-100%), 1% cholesterol plus 1 mg/kg Lovastatin or 0.1% NG5006, 8 weeks): 2.2 ± 0.9
